± gives the expanded uncertainty stated by the source.
What was measured:
[1] = Molar enthalpy of transition or fusion; details: Crystal; DSC
[2] = Crystal; for vapor or sublimation pressure: Transpiration method; for Normal melting temperature: DTA

Structure (SMILES) | Molar enthalpy of transition or fusion [1] [kcal/mol] | vapor or sublimation pressure ([2]; 373.15 K) [kPa] | vapor or sublimation pressure ([2]; 375.15 K) [kPa] | vapor or sublimation pressure ([2]; 377.15 K) [kPa] | vapor or sublimation pressure ([2]; 381.15 K) [kPa] | vapor or sublimation pressure ([2]; 383.15 K) [kPa] | vapor or sublimation pressure ([2]; 386.15 K) [kPa] | Normal melting temperature [2] [°C] | vapor or sublimation pressure ([2]; 353.15 K) [kPa] | vapor or sublimation pressure ([2]; 360.15 K) [kPa] | vapor or sublimation pressure ([2]; 371.15 K) [kPa] | further results
CC(=O)c1ccc(NC2=NCCC3(CCCCC3)S2)cc1 | 7.77 ± 0.287 | 4.1e-09 | 5.3e-09 | 6.8e-09 | 1.13e-08 | 1.46e-08 | 2.15e-08 | 163.5 ± 2.1 | – | – | – | vapor or sublimation pressure ([2]; 379.15 K): 8.8e-09 kPa; vapor or sublimation pressure ([2]; 385.15 K): 1.87e-08 kPa; vapor or sublimation pressure ([2]; 387.15 K): 2.52e-08 kPa; vapor or sublimation pressure ([2]; 388.15 K): 2.87e-08 kPa; vapor or sublimation pressure ([2]; 390.15 K): 3.44e-08 kPa; vapor or sublimation pressure ([2]; 391.15 K): 3.72e-08 kPa; vapor or sublimation pressure ([2]; 392.15 K): 4.46e-08 kPa; vapor or sublimation pressure ([2]; 393.15 K): 5.03e-08 kPa; vapor or sublimation pressure ([2]; 394.15 K): 5.5e-08 kPa; vapor or sublimation pressure ([2]; 396.15 K): 7.28e-08 kPa; vapor or sublimation pressure ([2]; 397.15 K): 7.97e-08 kPa
O=C(NC1=NCCC2(CCCCC2)S1)c1ccccc1 [N-(1-thia-3-azaspiro[5.5]undec-2-en-2-yl)benzamide] | 6.67 ± 0.287 | 1.06e-08 | 1.28e-08 | 1.4e-08 | 2e-08 | 2.26e-08 | 2.87e-08 | 130.2 ± 2.1 | 2.2e-09 | 3.8e-09 | 8.9e-09 | vapor or sublimation pressure ([2]; 354.15 K): 2.3e-09 kPa; vapor or sublimation pressure ([2]; 357.15 K): 3.1e-09 kPa; vapor or sublimation pressure ([2]; 363.15 K): 4.8e-09 kPa; vapor or sublimation pressure ([2]; 366.15 K): 5.8e-09 kPa; vapor or sublimation pressure ([2]; 368.15 K): 6.8e-09 kPa; vapor or sublimation pressure ([2]; 378.15 K): 1.51e-08 kPa; vapor or sublimation pressure ([2]; 380.15 K): 1.85e-08 kPa
COc1ccc(NC2=NCCC3(CCCCC3)S2)cc1 [N-(4-methoxyphenyl)-1-thia-3-azaspiro[5.5]undec-2-en-2-amine] | 6.52 ± 0.263 | 4.28e-08 | 5.23e-08 | 6.63e-08 | 9.73e-08 | – | – | 115.4 ± 2.1 | 3.4e-09 | 9.5e-09 | 3.63e-08 | vapor or sublimation pressure ([2]; 355.15 K): 4.7e-09 kPa; vapor or sublimation pressure ([2]; 358.15 K): 6.5e-09 kPa; vapor or sublimation pressure ([2]; 362.15 K): 1.15e-08 kPa; vapor or sublimation pressure ([2]; 365.15 K): 1.64e-08 kPa; vapor or sublimation pressure ([2]; 367.15 K): 2.17e-08 kPa; vapor or sublimation pressure ([2]; 369.15 K): 2.73e-08 kPa

From the NIST ThermoML archive (doi:10.1016/j.tca.2013.07.005)
